Assay results: US11254663B2 (BRISTOL-MYERS SQUIBB COMPANY, priority 2019, dated 2022)

The compounds below were run against FXR (Homo sapiens (Human), UniProt Q96RI1) (assay: FXR EC50 (FXR agonist potency reported with each Example)).
Type: cell-based

Sequence of FXR (Q96RI1 262-486): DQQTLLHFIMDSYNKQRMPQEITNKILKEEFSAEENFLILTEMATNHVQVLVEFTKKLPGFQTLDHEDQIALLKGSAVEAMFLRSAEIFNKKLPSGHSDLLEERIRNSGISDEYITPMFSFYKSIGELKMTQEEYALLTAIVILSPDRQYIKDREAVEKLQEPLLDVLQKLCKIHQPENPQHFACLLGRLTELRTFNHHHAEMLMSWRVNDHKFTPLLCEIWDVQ

Structure (SMILES)	EC50 [nM]
O=C(C1CC(F)(F)C1)N(CC12CCC(c3nc(C4CC4)no3)(CC1)CC2)c1cccc(-c2cc(C3CC3)on2)c1 [Example 60, N-((4-(3-cyclopropyl-1,2,4-oxadiazol-5-yl)bicyclo[2.2.2]octan-1-yl)methyl)-N-(3-(5-cyclopropylisoxazol-3-yl)phenyl)-3,3-difluorocyclobutane-1-carboxamide]	230
O=C(N(CC12CCC(c3nc(CC4CC4)no3)(CC1)CC2)c1cccc(-c2nc(CC3CC3)no2)c1)C12CC(F)(C1)C2 [Example 61, N-((4-(3-(cyclopropylmethyl)-1,2,4-oxadiazol-5-yl)bicyclo[2.2.2]octan-1-yl)methyl)-N-(3-(3-(cyclopropylmethyl)-1,2,4-oxadiazol-5-yl)phenyl)-3-fluorobicyclo[1.1.1]pentane-1-carboxamide]	99
O=C(C1CCC(F)(F)C1)N(CC12CCC(c3nc(CC4CC4)no3)(CC1)CC2)c1cccc(-c2nc(CC3CC3)no2)c1 (stereo not drawn) [Example 62, N-((4-(3-(cyclopropylmethyl)-1,2,4-oxadiazol-5-yl)bicyclo[2.2.2]octan-1-yl)methyl)-N-(3-(3-(cyclopropylmethyl)-1,2,4-oxadiazol-5-yl)phenyl)-3,3-difluorocyclopentane-1-carboxamide]	363
O=C(C1CC(F)(F)C1)N(CC12CCC(c3nc(CC4CC4)no3)(CC1)CC2)c1cccc(-c2nc(CC3CC3)no2)c1 [Example 63, N-((4-(3-(cyclopropylmethyl)-1,2,4-oxadiazol-5-yl)bicyclo[2.2.2]octan-1-yl)methyl)-N-(3-(3-(cyclopropylmethyl)-1,2,4-oxadiazol-5-yl)phenyl)-3,3-difluorocyclobutane-1-carboxamide]	562
O=C(C1CCC1)N(CC12CCC(c3nc(CC4CC4)no3)(CC1)CC2)c1cccc(-c2nc(CC3CC3)no2)c1 [Example 64, N-((4-(3-(cyclopropylmethyl)-1,2,4-oxadiazol-5-yl)bicyclo[2.2.2]octan-1-yl)methyl)-N-(3-(3-(cyclopropylmethyl)-1,2,4-oxadiazol-5-yl)phenyl)cyclobutanecarboxamide]	524
O=C(N(CC12CCC(c3nc(C4CC4)no3)(CC1)CC2)c1cccc(-c2nc(CC3CC3)no2)c1)C12CC(F)(C1)C2 [Example 65, N-((4-(3-cyclopropyl-1,2,4-oxadiazol-5-yl)bicyclo[2.2.2]octan-1-yl)methyl)-N-(3-(3-(cyclopropylmethyl)-1,2,4-oxadiazol-5-yl)phenyl)-3-fluorobicyclo[1.1.1]pentane-1-carboxamide]	142
O=C(C1CCC1)N(CC12CCC(c3nc(C4CC4)no3)(CC1)CC2)c1cccc(-c2nc(CC3CC3)no2)c1 [Example 66, N-((4-(3-cyclopropyl-1,2,4-oxadiazol-5-yl)bicyclo[2.2.2]octan-1-yl)methyl)-N-(3-(3-(cyclopropylmethyl)-1,2,4-oxadiazol-5-yl)phenyl)cyclobutanecarboxamide]	303
O=C(C1CCC(F)(F)C1)N(CC12CCC(c3nc(C4CC4)no3)(CC1)CC2)c1cccc(-c2nc(CC3CC3)no2)c1 (stereo not drawn) [Example 67, N-((4-(3-cyclopropyl-1,2,4-oxadiazol-5-yl)bicyclo[2.2.2]octan-1-yl)methyl)-N-(3-(3-(cyclopropylmethyl)-1,2,4-oxadiazol-5-yl)phenyl)-3,3-difluorocyclopentane-1-carboxamide]	202
O=C(N(CC12CCC(c3nc(CC4CC4)no3)(CC1)CC2)c1cccc(-c2nc(C3CC3)no2)c1)C12CC(F)(C1)C2 [Example 68, N-(3-(3-cyclopropyl-1,2,4-oxadiazol-5-yl)phenyl)-N-((4-(3-(cyclopropylmethyl)-1,2,4-oxadiazol-5-yl)bicyclo[2.2.2]octan-1-yl)methyl)-3-fluorobicyclo[1.1.1]pentane-1-carboxamide]	110
O=C(C1CCC(F)(F)C1)N(CC12CCC(c3nc(CC4CC4)no3)(CC1)CC2)c1cccc(-c2nc(C3CC3)no2)c1 (stereo not drawn) [Example 69, N-(3-(3-cyclopropyl-1,2,4-oxadiazol-5-yl)phenyl)-N-((4-(3-(cyclopropylmethyl)-1,2,4-oxadiazol-5-yl)bicyclo[2.2.2]octan-1-yl)methyl)-3,3-difluorocyclopentane-1-carboxamide]	474
O=C(C1CC(F)(F)C1)N(CC12CCC(c3nc(CC4CC4)no3)(CC1)CC2)c1cccc(-c2nc(C3CC3)no2)c1 [Example 70, N-(3-(3-cyclopropyl-1,2,4-oxadiazol-5-yl)phenyl)-N-((4-(3-(cyclopropylmethyl)-1,2,4-oxadiazol-5-yl)bicyclo[2.2.2]octan-1-yl)methyl)-3,3-difluorocyclobutane-1-carboxamide]	598
O=C(C1CCC1)N(CC12CCC(c3nc(CC4CC4)no3)(CC1)CC2)c1cccc(-c2nc(C3CC3)no2)c1 [Example 71, N-(3-(3-cyclopropyl-1,2,4-oxadiazol-5-yl)phenyl)-N-((4-(3-(cyclopropylmethyl)-1,2,4-oxadiazol-5-yl)bicyclo[2.2.2]octan-1-yl)methyl)cyclobutanecarboxamide]	406
COCc1nc(-c2cccc(N(CC34CCC(c5nc(C6CC6)no5)(CC3)CC4)C(=O)C34CC(F)(C3)C4)c2)cs1 [Example 72, N-((4-(3-cyclopropyl-1,2,4-oxadiazol-5-yl)bicyclo[2.2.2]octan-1-yl)methyl)-3-fluoro-N-(3-(2-(methoxymethyl)thiazol-4-yl)phenyl)bicyclo[1.1.1]pentane-1-carboxamide]	166
COCc1nc(-c2cccc(N(CC34CCC(c5nc(C6CC6)no5)(CC3)CC4)C(=O)C3CC(C(F)F)C3)c2)cs1 (stereo not drawn) [Example 73, N-((4-(3-cyclopropyl-1,2,4-oxadiazol-5-yl)bicyclo[2.2.2]octan-1-yl)methyl)-3-(difluoromethyl)-N-(3-(2-(methoxymethyl)thiazol-4-yl)phenyl)cyclobutane-1-carboxamide]	341
COCc1nc(-c2cccc(N(CC34CCC(c5nc(C6CC6)no5)(CC3)CC4)C(=O)C3CCC(F)(F)C3)c2)cs1 (stereo not drawn) [Example 74, N-((4-(3-cyclopropyl-1,2,4-oxadiazol-5-yl)bicyclo[2.2.2]octan-1-yl)methyl)-3,3-difluoro-N-(3-(2-(methoxymethyl)thiazol-4-yl)phenyl)cyclopentane-1-carb oxamide]	220
Cn1nc(-c2cccc(N(CC34CCC(c5nc(C6CC6)no5)(CC3)CC4)C(=O)C34CC(F)(C3)C4)c2)cc1C1CC1 [Example 75, N-((4-(3-cyclopropyl-1,2,4-oxadiazol-5-yl)bicyclo[2.2.2]octan-1-yl)methyl)-N-(3-(5-cyclopropyl-1-methyl-1H-pyrazol-3-yl)phenyl)-3-fluorobicyclo[1.1.1]pentane-1-carboxamide]	247
Cn1nc(-c2cccc(N(CC34CCC(c5nc(C6CC6)no5)(CC3)CC4)C(=O)C3CC(F)(F)C3)c2)cc1C1CC1 [Example 76, N-((4-(3-cyclopropyl-1,2,4-oxadiazol-5-yl)bicyclo[2.2.2]octan-1-yl)methyl)-N-(3-(5-cyclopropyl-1-methyl-1H-pyrazol-3-yl)phenyl)-3,3-difluorocyclobutane-1-carboxamide]	610
Cn1nc(-c2cccc(N(CC34CCC(c5nc(C6CC6)no5)(CC3)CC4)C(=O)C3CCC(F)(F)C3)c2)cc1C1CC1 (stereo not drawn) [Example 77, N-((4-(3-cyclopropyl-1,2,4-oxadiazol-5-yl)bicyclo[2.2.2]octan-1-yl)methyl)-N-(3-(5-cyclopropyl-1-methyl-1H-pyrazol-3-yl)phenyl)-3,3-difluorocyclopentane-1-carboxamide]	429
